# Data: PubChem BioAssay (NCI)
#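 Step 1: Grow cells in 96-well plates. Step 2: Expose to compound for 48 hours at 5 concentrations. Step 3: Interpolate endpoints linearly; if unreached, use highest concentration. GI50 = concentration required for 50% inhibition of growth. At the TGI there is no net growth.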
# Tests used:
# Assay in all cases: NCI-60 cell line screen, 48 h
# BT-549 breast = test system: BT-549 breast
# HT29 colon = test system: HT29 colon
# KM12 colon = test system: KM12 colon
# UACC-62 melanoma = test system: UACC-62 melanoma
# DU-145 prostate = test system: DU-145 prostate
# SN12C renal = test system: SN12C renal
# OVCAR-8 ovarian = test system: OVCAR-8 ovarian
# CCRF-CEM leukemia = test system: CCRF-CEM leukemia
# A498 renal = test system: A498 renal
# SK-MEL-5 melanoma = test system: SK-MEL-5 melanoma
# PC-3 prostate = test system: PC-3 prostate
# SF-295 CNS = test system: SF-295 CNS
# CAKI-1 renal = test system: CAKI-1 renal
# M14 melanoma = test system: M14 melanoma
# IGROV1 ovarian = test system: IGROV1 ovarian
# K-562 leukemia = test system: K-562 leukemia
# U251 CNS = test system: U251 CNS
# LOX IMVI melanoma = test system: LOX IMVI melanoma
# OVCAR-5 ovarian = test system: OVCAR-5 ovarian
# SK-MEL-2 melanoma = test system: SK-MEL-2 melanoma
# HCT-15 colon = test system: HCT-15 colon
# SK-OV-3 ovarian = test system: SK-OV-3 ovarian
# SF-539 CNS = test system: SF-539 CNS
# EKVX NSCLC = test system: EKVX NSCLC
# SK-MEL-28 melanoma = test system: SK-MEL-28 melanoma
# NCI-H226 lung = test system: NCI-H226 lung
# COLO 205 colon = test system: COLO 205 colon
# NCI-H23 lung = test system: NCI-H23 lung
# SW-620 colon = test system: SW-620 colon
# RXF 393 renal = test system: RXF 393 renal
# HL-60(TB) leukemia = test system: HL-60(TB) leukemia
# SF-268 CNS = test system: SF-268 CNS
# MDA-MB-231 breast = test system: MDA-MB-231 breast
# MALME-3M melanoma = test system: MALME-3M melanoma
# NCI-H460 lung = test system: NCI-H460 lung
# OVCAR-3 ovarian = test system: OVCAR-3 ovarian
# MOLT-4 leukemia = test system: MOLT-4 leukemia
# MCF7 breast = test system: MCF7 breast
# 786-0 renal = test system: 786-0 renal
# SNB-75 CNS = test system: SNB-75 CNS
# NCI/ADR-RES ovarian = test system: NCI/ADR-RES ovarian
# ACHN renal = test system: ACHN renal
# UACC-257 melanoma = test system: UACC-257 melanoma
# RPMI-8226 leukemia = test system: RPMI-8226 leukemia
# HOP-62 NSCLC = test system: HOP-62 NSCLC
# MDA-MB-435 = test system: MDA-MB-435
# HCT-116 colon = test system: HCT-116 colon
# SNB-19 CNS = test system: SNB-19 CNS
# MDA-N = test system: MDA-N
# SR leukemia = test system: SR leukemia
# TK-10 renal = test system: TK-10 renal
# HS 578T breast = test system: HS 578T breast
# HCC-2998 colon = test system: HCC-2998 colon
# A549 NSCLC = test system: A549 NSCLC
# OVCAR-4 ovarian = test system: OVCAR-4 ovarian
# T-47D breast = test system: T-47D breast
# UO-31 renal = test system: UO-31 renal
# NCI-H522 lung = test system: NCI-H522 lung
# HOP-92 NSCLC = test system: HOP-92 NSCLC
structure (smiles),measurement,setting,value
Cn1c(=O)sc2cc(C(=S)N3CCN(c4ccccc4)CC3)ccc21,TGI,BT-549 breast,> 100 µM
same,TGI,HT29 colon,> 100 µM
same,TGI,KM12 colon,> 100 µM
same,TGI,UACC-62 melanoma,> 100 µM
same,TGI,DU-145 prostate,> 100 µM
same,TGI,SN12C renal,> 100 µM
same,TGI,OVCAR-8 ovarian,> 100 µM
same,TGI,CCRF-CEM leukemia,> 100 µM
same,TGI,A498 renal,> 100 µM
same,TGI,SK-MEL-5 melanoma,> 100 µM
same,TGI,PC-3 prostate,> 100 µM
same,TGI,SF-295 CNS,53.9 µM
same,TGI,CAKI-1 renal,> 100 µM
same,TGI,M14 melanoma,> 100 µM
same,TGI,IGROV1 ovarian,> 100 µM
same,TGI,K-562 leukemia,> 100 µM
same,TGI,U251 CNS,35.1 µM
same,TGI,LOX IMVI melanoma,> 100 µM
same,TGI,OVCAR-5 ovarian,> 100 µM
same,TGI,SK-MEL-2 melanoma,> 100 µM
same,TGI,HCT-15 colon,> 100 µM
same,TGI,SK-OV-3 ovarian,> 100 µM
same,TGI,SF-539 CNS,61.4 µM
same,TGI,EKVX NSCLC,> 100 µM
same,TGI,SK-MEL-28 melanoma,> 100 µM
same,TGI,NCI-H226 lung,> 100 µM
same,TGI,COLO 205 colon,> 100 µM
same,TGI,NCI-H23 lung,> 100 µM
same,TGI,SW-620 colon,> 100 µM
same,TGI,RXF 393 renal,> 100 µM
same,TGI,HL-60(TB) leukemia,> 100 µM
same,TGI,SF-268 CNS,> 100 µM
same,TGI,MDA-MB-231 breast,> 100 µM
same,TGI,MALME-3M melanoma,> 100 µM
same,TGI,NCI-H460 lung,> 100 µM
same,TGI,OVCAR-3 ovarian,> 100 µM
same,TGI,MOLT-4 leukemia,> 100 µM
same,TGI,MCF7 breast,> 100 µM
same,TGI,786-0 renal,> 100 µM
same,TGI,SNB-75 CNS,80.6 µM
same,TGI,NCI/ADR-RES ovarian,> 100 µM
same,TGI,ACHN renal,> 100 µM
same,TGI,UACC-257 melanoma,> 100 µM
same,TGI,RPMI-8226 leukemia,> 100 µM
same,TGI,HOP-62 NSCLC,42.8 µM
same,TGI,MDA-MB-435,> 100 µM
same,TGI,HCT-116 colon,> 100 µM
same,TGI,SNB-19 CNS,> 100 µM
same,TGI,MDA-N,> 100 µM
same,TGI,SR leukemia,> 100 µM
same,TGI,TK-10 renal,> 100 µM
same,TGI,HS 578T breast,> 100 µM
COC(=O)Nc1nc2ccc(S(=O)(=O)c3ccc(NC(=O)Nc4cc(C(F)(F)F)ccc4F)cc3)cc2[nH]1,GI50,BT-549 breast,> 25 µM
same,TGI,BT-549 breast,> 25 µM
same,GI50,HT29 colon,> 25 µM
same,TGI,HT29 colon,> 25 µM
same,GI50,HCC-2998 colon,> 25 µM
same,TGI,HCC-2998 colon,> 25 µM
same,GI50,KM12 colon,> 21.1 µM
same,TGI,KM12 colon,> 25 µM
same,GI50,UACC-62 melanoma,> 25 µM
same,TGI,UACC-62 melanoma,> 25 µM
same,GI50,DU-145 prostate,> 25 µM
same,TGI,DU-145 prostate,> 25 µM
same,GI50,SN12C renal,> 25 µM
same,TGI,SN12C renal,> 25 µM
same,GI50,OVCAR-8 ovarian,> 25 µM
same,TGI,OVCAR-8 ovarian,> 25 µM
same,GI50,CCRF-CEM leukemia,> 25 µM
same,TGI,CCRF-CEM leukemia,> 25 µM
same,GI50,A498 renal,> 25 µM
same,TGI,A498 renal,> 25 µM
same,GI50,SK-MEL-5 melanoma,> 25 µM
same,TGI,SK-MEL-5 melanoma,> 25 µM
same,GI50,A549 NSCLC,> 25 µM
same,TGI,A549 NSCLC,> 25 µM
same,GI50,OVCAR-4 ovarian,> 25 µM
same,TGI,OVCAR-4 ovarian,> 25 µM
same,GI50,PC-3 prostate,> 25 µM
same,TGI,PC-3 prostate,> 25 µM
same,GI50,SF-295 CNS,> 25 µM
same,TGI,SF-295 CNS,> 25 µM
same,GI50,CAKI-1 renal,> 25 µM
same,TGI,CAKI-1 renal,> 25 µM
same,GI50,T-47D breast,> 25 µM
same,TGI,T-47D breast,> 25 µM
same,GI50,M14 melanoma,> 25 µM
same,TGI,M14 melanoma,> 25 µM
same,GI50,IGROV1 ovarian,> 25 µM
same,TGI,IGROV1 ovarian,> 25 µM
same,GI50,UO-31 renal,> 25 µM
same,TGI,UO-31 renal,> 25 µM
same,GI50,K-562 leukemia,> 25 µM
same,TGI,K-562 leukemia,> 25 µM
same,GI50,U251 CNS,> 25 µM
same,TGI,U251 CNS,> 25 µM
same,GI50,LOX IMVI melanoma,> 25 µM
same,TGI,LOX IMVI melanoma,> 25 µM
same,GI50,OVCAR-5 ovarian,> 25 µM
same,TGI,OVCAR-5 ovarian,> 25 µM
same,GI50,SK-MEL-2 melanoma,> 25 µM
same,TGI,SK-MEL-2 melanoma,> 25 µM
same,GI50,HCT-15 colon,> 25 µM
same,TGI,HCT-15 colon,> 25 µM
same,GI50,NCI-H522 lung,> 25 µM
same,TGI,NCI-H522 lung,> 25 µM
same,GI50,SK-OV-3 ovarian,> 25 µM
same,TGI,SK-OV-3 ovarian,> 25 µM
same,GI50,SF-539 CNS,> 25 µM
same,TGI,SF-539 CNS,> 25 µM
same,GI50,EKVX NSCLC,> 25 µM
same,TGI,EKVX NSCLC,> 25 µM
same,GI50,SK-MEL-28 melanoma,> 25 µM
same,TGI,SK-MEL-28 melanoma,> 25 µM
same,GI50,NCI-H226 lung,> 25 µM
same,TGI,NCI-H226 lung,> 25 µM
same,GI50,COLO 205 colon,> 25 µM
same,TGI,COLO 205 colon,> 25 µM
same,GI50,NCI-H23 lung,> 25 µM
same,TGI,NCI-H23 lung,> 25 µM
same,GI50,SW-620 colon,> 25 µM
same,TGI,SW-620 colon,> 25 µM
same,GI50,RXF 393 renal,> 25 µM
same,TGI,RXF 393 renal,> 25 µM
same,GI50,HL-60(TB) leukemia,> 25 µM
same,TGI,HL-60(TB) leukemia,> 25 µM
same,GI50,SF-268 CNS,> 25 µM
same,TGI,SF-268 CNS,> 25 µM
same,GI50,MDA-MB-231 breast,> 25 µM
same,TGI,MDA-MB-231 breast,> 25 µM
same,GI50,MALME-3M melanoma,> 25 µM
same,TGI,MALME-3M melanoma,> 25 µM
same,GI50,NCI-H460 lung,> 25 µM
same,TGI,NCI-H460 lung,> 25 µM
same,GI50,OVCAR-3 ovarian,> 25 µM
same,TGI,OVCAR-3 ovarian,> 25 µM
same,GI50,MOLT-4 leukemia,> 25 µM
same,TGI,MOLT-4 leukemia,> 25 µM
same,GI50,MCF7 breast,> 25 µM
same,TGI,MCF7 breast,> 25 µM
same,GI50,786-0 renal,> 25 µM
same,TGI,786-0 renal,> 25 µM
same,GI50,SNB-75 CNS,> 25 µM
same,TGI,SNB-75 CNS,> 25 µM
same,GI50,NCI/ADR-RES ovarian,> 25 µM
same,TGI,NCI/ADR-RES ovarian,> 25 µM
same,GI50,ACHN renal,> 25 µM
same,TGI,ACHN renal,> 25 µM
same,GI50,UACC-257 melanoma,> 25 µM
same,TGI,UACC-257 melanoma,> 25 µM
same,GI50,RPMI-8226 leukemia,> 25 µM
same,TGI,RPMI-8226 leukemia,> 25 µM
same,GI50,HOP-62 NSCLC,> 25 µM
same,TGI,HOP-62 NSCLC,> 25 µM
same,GI50,HOP-92 NSCLC,> 25 µM
same,TGI,HOP-92 NSCLC,> 25 µM
same,GI50,MDA-MB-435,> 25 µM
same,TGI,MDA-MB-435,> 25 µM
same,GI50,HCT-116 colon,> 25 µM
same,TGI,HCT-116 colon,> 25 µM
same,GI50,SNB-19 CNS,> 25 µM
same,TGI,SNB-19 CNS,> 25 µM
same,GI50,SR leukemia,> 25 µM
same,TGI,SR leukemia,> 25 µM
same,GI50,TK-10 renal,> 25 µM
same,TGI,TK-10 renal,> 25 µM
same,GI50,HS 578T breast,> 25 µM
same,TGI,HS 578T breast,> 25 µM
